In the NIST ThermoML archive (doi:10.1021/acs.jced.5b00978):
“And” between values parts separate entries of the source, which are not always exact repeats. Equal values may be shown once.

Legend:
[1] = for Normal melting temperature: DTA
[2] = Molar enthalpy of transition or fusion; details: Crystal; DSC

CNc1ccc(C(=O)OC)cc1 [methyl p-(methylamino)benzoate]
[1]
Details | vapor or sublimation pressure
317.09 K, Crystal, Calculated from knudsen effusion weight loss | 7.8e-05 kPa
319.16 K, Crystal, Calculated from knudsen effusion weight loss | 0.000101 kPa and 0.000103 kPa
321.19 K, Crystal, Calculated from knudsen effusion weight loss | 0.000131 kPa and 0.00013 kPa
323.08 K, Crystal, Calculated from knudsen effusion weight loss | 0.000167 kPa and 0.000165 kPa and 0.000168 kPa
325.15 K, Crystal, Calculated from knudsen effusion weight loss | 0.000213 kPa and 0.000207 kPa and 0.000215 kPa
327.18 K, Crystal, Calculated from knudsen effusion weight loss | 0.000263 kPa and 0.000266 kPa and 0.000271 kPa
329.12 K, Crystal, Calculated from knudsen effusion weight loss | 0.000338 kPa and 0.000335 kPa and 0.000341 kPa
331.22 K, Crystal, Calculated from knudsen effusion weight loss | 0.000427 kPa and 0.000425 kPa and 0.000433 kPa
332.9 K, Crystal, Closed cell (Static) method | 0.00054 kPa
333.17 K, Crystal, Calculated from knudsen effusion weight loss | 0.000537 kPa and 0.000535 kPa and 0.00054 kPa
334.88 K, Crystal, Closed cell (Static) method | 0.00068 kPa
335.09 K, Crystal, Calculated from knudsen effusion weight loss | 0.00068 kPa and 0.000688 kPa and 0.000691 kPa
336.87 K, Crystal, Closed cell (Static) method | 0.00086 kPa
337.17 K, Crystal, Calculated from knudsen effusion weight loss | 0.000869 kPa and 0.000862 kPa and 0.000855 kPa
338.87 K, Crystal, Closed cell (Static) method | 0.00108 kPa
339.18 K, Crystal, Calculated from knudsen effusion weight loss | 0.001064 kPa and 0.00106 kPa and 0.001061 kPa
340.85 K, Crystal, Closed cell (Static) method | 0.00134 kPa
342.84 K, Crystal, Closed cell (Static) method | 0.00167 kPa
344.81 K, Crystal, Closed cell (Static) method | 0.00207 kPa
346.8 K, Crystal, Closed cell (Static) method | 0.00257 kPa
348.77 K, Metastable liquid, Closed cell (Static) method | 0.00482 kPa
348.79 K, Crystal, Closed cell (Static) method | 0.00317 kPa
350.76 K, Metastable liquid, Closed cell (Static) method | 0.0056 kPa
350.81 K, Crystal, Closed cell (Static) method | 0.0039 kPa
352.75 K, Metastable liquid, Closed cell (Static) method | 0.00655 kPa
352.76 K, Crystal, Closed cell (Static) method | 0.00477 kPa
354.74 K, Crystal, Closed cell (Static) method | 0.00575 kPa
354.74 K, Metastable liquid, Closed cell (Static) method | 0.0076 kPa
356.72 K, Metastable liquid, Closed cell (Static) method | 0.00876 kPa
356.73 K, Crystal, Closed cell (Static) method | 0.00703 kPa
358.69 K, Metastable liquid, Closed cell (Static) method | 0.01017 kPa
358.71 K, Crystal, Closed cell (Static) method | 0.0085 kPa
360.67 K, Metastable liquid, Closed cell (Static) method | 0.01173 kPa
360.69 K, Crystal, Closed cell (Static) method | 0.01033 kPa
362.67 K, Metastable liquid, Closed cell (Static) method | 0.01351 kPa
364.65 K, Metastable liquid, Closed cell (Static) method | 0.01561 kPa
366.64 K, Metastable liquid, Closed cell (Static) method | 0.01788 kPa
368.55 K, Closed cell (Static) method, Liquid | 0.02015 kPa
370.6 K, Closed cell (Static) method, Liquid | 0.02331 kPa
372.58 K, Closed cell (Static) method, Liquid | 0.02669 kPa
374.55 K, Closed cell (Static) method, Liquid | 0.03049 kPa
376.53 K, Closed cell (Static) method, Liquid | 0.03459 kPa
378.5 K, Closed cell (Static) method, Liquid | 0.03935 kPa
380.51 K, Closed cell (Static) method, Liquid | 0.04446 kPa
382.47 K, Closed cell (Static) method, Liquid | 0.05044 kPa
384.46 K, Closed cell (Static) method, Liquid | 0.05682 kPa
386.45 K, Closed cell (Static) method, Liquid | 0.06435 kPa
388.41 K, Closed cell (Static) method, Liquid | 0.07241 kPa
390.4 K, Closed cell (Static) method, Liquid | 0.0815 kPa
392.35 K, Closed cell (Static) method, Liquid | 0.09154 kPa

Details | Normal melting temperature [°C]
[1], Crystal | 93

Details | Molar enthalpy of transition or fusion [kcal/mol]
[2] | 6.57

COC(=O)c1ccc([N+](=O)[O-])cc1 [methyl p-nitrobenzoate]
[1]
Details | vapor or sublimation pressure [kPa]
319.01 K, Crystal, Closed cell (Static) method | 0.00074
321.07 K, Crystal, Closed cell (Static) method | 0.00092
322.98 K, Crystal, Closed cell (Static) method | 0.00115
325.03 K, Crystal, Closed cell (Static) method | 0.00144
326.97 K, Crystal, Closed cell (Static) method | 0.00177
328.99 K, Crystal, Closed cell (Static) method | 0.0022
330.91 K, Crystal, Closed cell (Static) method | 0.00265
332.94 K, Crystal, Closed cell (Static) method | 0.00333
334.86 K, Crystal, Closed cell (Static) method | 0.00404
336.9 K, Crystal, Closed cell (Static) method | 0.00497
338.83 K, Crystal, Closed cell (Static) method | 0.00597
340.86 K, Crystal, Closed cell (Static) method | 0.00734
342.77 K, Crystal, Closed cell (Static) method | 0.00878
344.81 K, Crystal, Closed cell (Static) method | 0.01073
346.71 K, Crystal, Closed cell (Static) method | 0.01286
348.76 K, Crystal, Closed cell (Static) method | 0.01564
350.59 K, Crystal, Closed cell (Static) method | 0.01843
352.71 K, Crystal, Closed cell (Static) method | 0.02255
354.57 K, Crystal, Closed cell (Static) method | 0.02656
356.66 K, Crystal, Closed cell (Static) method | 0.03213
358.51 K, Crystal, Closed cell (Static) method | 0.03767
360.47 K, Metastable liquid, Closed cell (Static) method | 0.05433
360.61 K, Crystal, Closed cell (Static) method | 0.04542
362.46 K, Metastable liquid, Closed cell (Static) method | 0.0615
362.47 K, Crystal, Closed cell (Static) method | 0.05331
364.43 K, Metastable liquid, Closed cell (Static) method | 0.06971
364.55 K, Crystal, Closed cell (Static) method | 0.06362
370.48 K, Closed cell (Static) method, Liquid | 0.1019
372.46 K, Closed cell (Static) method, Liquid | 0.1149
374.39 K, Closed cell (Static) method, Liquid | 0.1281
376.4 K, Closed cell (Static) method, Liquid | 0.1446
378.37 K, Closed cell (Static) method, Liquid | 0.1615
380.36 K, Closed cell (Static) method, Liquid | 0.1809
382.3 K, Closed cell (Static) method, Liquid | 0.2008
384.27 K, Closed cell (Static) method, Liquid | 0.2241
386.24 K, Closed cell (Static) method, Liquid | 0.2502
388.24 K, Closed cell (Static) method, Liquid | 0.2792
390.19 K, Closed cell (Static) method, Liquid | 0.3091
392.19 K, Closed cell (Static) method, Liquid | 0.3449
394.11 K, Closed cell (Static) method, Liquid | 0.3796
396.19 K, Closed cell (Static) method, Liquid | 0.4248
398.07 K, Closed cell (Static) method, Liquid | 0.4655
400.05 K, Closed cell (Static) method, Liquid | 0.5141
401.96 K, Closed cell (Static) method, Liquid | 0.5665
403.96 K, Closed cell (Static) method, Liquid | 0.6244
405.95 K, Closed cell (Static) method, Liquid | 0.6894
407.87 K, Closed cell (Static) method, Liquid | 0.7541
409.86 K, Closed cell (Static) method, Liquid | 0.8302
411.81 K, Closed cell (Static) method, Liquid | 0.9078
413.78 K, Closed cell (Static) method, Liquid | 0.9952
415.75 K, Closed cell (Static) method, Liquid | 1.088

Details | Normal melting temperature [°C]
[1], Crystal | 96.2

Details | Molar enthalpy of transition or fusion [kcal/mol]
[2] | 5.83
